Each block holds one molecule with its values, some of them ahead of it.
Key:
[1] = test system: A549 (human lung carcinoma); assay: In vivo anticancer activity, A549 tumor transplantation model; design: species or system BALB/c nude mice (human tumor xenograft); settings: for IR (%): Table 20
Protocol: (§1) Male BALB/c nude mice (4-week old) used in human tumor transplantation studies were purchased from Central Animal Laboratory Inc. (Korea) or Orient Bio Inc. (Korea). The animals were permitted ad libitum access to sterile feed and water in a sterile breeding system at 23+0.5° C.
(§2) For use in tumor transplantation studies, the human cancer cell lines HCT116 (human colorectal carcinoma, CCL-247), PC-3 (human prostate adenocarcinoma, CRL-1435), and A549 (human lung carcinoma, CCL-185) were purchased from ATCC (American Type Culture Collection, Rockville, Md., USA).
(§3) HCT116 cells were cultured in an air incubator under conditions of 37° C. and 5% CO2 using McCoy'SA medium (Gibco BRL) containing 10% heat-inactivated fetal bovine serum (Gibco BRL) and 1% antibiotics-antymycotics (Gibco BRL). Cell lines other than the HCT116 cell line were cultured in an air incubator under conditions of 37° C. and 5% CO2 using RPM1640 medium (Gibco BRL) containing 10% heat-inactivated fetal bovine serum (Gibco BRL) and 1% antibiotics-antymycotics (Gibco BRL).
(§4) Studies on the in vivo transplantation of human cancer cells were carried out in the following manner. Human cancer cells (HCT116, PC-3, and A549) that proliferated in vitro were injected subcutaneously into the abdominal region of BALB/c nude mice and allowed to proliferate in vivo. 20-25 days after the injection, the mice were sacrificed by cervical dislocation, and the solid cancer that proliferated in each of the mice was isolated aseptically, and connective or necrotic tissue and skin was removed therefrom, thus collecting a fresh cancer tissue. 50 mg of a fragment was taken aseptically from the cancer tissue and inserted into a 16-gauge trocar which was then transplanted subcutaneously into the upper abdominal region of mice.
(§5) 15-30 days after the human cancer cell lines have been transplanted into the BALB/c nude mice, only mice in which the cancer cells have proliferated to a given size were selected and used in the experiment. When the tumor size in each of the test groups reached 100-200 mm^3 after cancer cell transplantation, the experiment was started.
(§6) The anticancer effect of each drug was evaluated based on the inhibition rate (IR %) of tumor volume that indicates the tumor volume at reference date in comparison with control groups. […] Tumor size=(short diameter)×(long diameter)/2 I.R.(%)=[1−(mean tumor size of drug-administered group)/(mean tumor size of control group)]×100

[2] = test system: PC-3 (human prostate adenocarcinoma); assay: In vivo anticancer activity, PC-3 tumor transplantation model; design: species or system BALB/c nude mice (human tumor xenograft); settings: for IR (%): Table 21
Protocol: as §1, §2, §3, §4, §5, §6

HL60 cell line = assay: Inhibitory effect on growth of HL60 cell line (MTT); type: cell-based; settings: Homo sapiens, HL-60, 72 h, 3 days culture
Protocol: In the culture of HL60 cells, 10% FBS-containing RPMI1640 medium was used Each of test substances was serially diluted in DMSO to a concentration of 10 mg/ml and serially diluted in PBS to a final concentration ranging from 100 μg/ml to 0.03 μg/ml. 20 μl (micro-liter) of each of the serially diluted test substances and 180 μl (micro-liter) of a medium containing 60×10^4 cells/ml were added to a 96-well plate and cultured under conditions of 37° C. and 5% CO2 for 3 days. After completion of the culture, 50 μl (micro-liter) of a solution of 1.25 mg/ml MTT (3-(4,5-dimethylthiazol-2-yl)-2,5-diphenyltetrazolium bromide) in PBS was added to each well of the plate and incubated at 37° C. for 3 hours. The formed formazan crystal was dissolved in 150 μl (micro-liter) of DMSO, and the absorbance at 570 nm was measured.

[3] = test system: HCT116 (human colorectal carcinoma); assay: In vivo anticancer activity, HCT116 tumor transplantation model; design: species or system BALB/c nude mice (human tumor xenograft)
Protocol: as §1, §2, §3, §4, §5, §6

P450 (CYP3A4) = P450 (CYP3A4) (Homo sapiens, UniProt P08684); assay: P450 (CYP3A4) inhibitory activity (BFC fluorescent substrate); type: in vitro ADME; settings: FIG. 6; in words
Sequence of P450 (CYP3A4) (P08684 whole entry, species assumed): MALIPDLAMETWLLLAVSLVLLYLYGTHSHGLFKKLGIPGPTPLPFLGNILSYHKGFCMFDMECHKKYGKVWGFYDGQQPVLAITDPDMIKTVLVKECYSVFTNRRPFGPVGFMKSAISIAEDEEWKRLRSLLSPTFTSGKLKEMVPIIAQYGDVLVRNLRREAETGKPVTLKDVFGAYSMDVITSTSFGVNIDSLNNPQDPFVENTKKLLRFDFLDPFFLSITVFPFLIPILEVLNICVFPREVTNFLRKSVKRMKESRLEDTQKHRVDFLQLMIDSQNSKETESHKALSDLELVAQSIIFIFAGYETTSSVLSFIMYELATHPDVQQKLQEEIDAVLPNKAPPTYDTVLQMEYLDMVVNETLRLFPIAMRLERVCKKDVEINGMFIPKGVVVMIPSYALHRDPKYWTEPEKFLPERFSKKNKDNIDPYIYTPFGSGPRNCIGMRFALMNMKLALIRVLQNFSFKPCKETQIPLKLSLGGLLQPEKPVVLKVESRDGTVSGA
Protocol: P450 (CYP3A4) is a metabolic enzyme, and non-inhibition of the enzyme by a test compound means that the test substance has a low possibility of causing side effects by interaction with other drugs. Each of compounds used in the test was dissolved in DMSO (10 mg/ml), and the dilution of each test substance to 2×10^−2 mg/ml was additionally performed in 200 μl (micro-liter) of a test system containing an assay buffer. The final solvent concentration was not higher than 2%. The CYP3A4 protein inhibitory test system included a total assay volume (100 μl (micro-liter)) of a NADPH production system (3.3 mM glucose-6-phosphate, 0.4 units/ml glucose-6-phosphate dehydrogenase, 1.3 mM NADP+ and 3.3 mM MgCl2.6H2O in assay buffer) and a test compound in each well of a 96-well plate. After pre-incubation at 37° C. for 10 minutes, 100 μl (micro-liter) of a KPO4 assay buffer containing […] P450 protein and 50 uM BFC (7-benzyloxy-trifluoromethylcoumarin) fluorescent probe substrate was added to the test system, and an enzyme reaction in the test system having a total assay volume of 200 μl (micro-liter) was initiated. […] Irradiation with fluorescence was carried out at an excitation wavelength of 409 nm and an emission wavelength of 530 nm.

in vivo = settings: BALB/c nude, mouse, ip
[4] = Maximum tolerated dose in the HCT116 xenograft experiments; settings: BALB/c nude, mouse, in vivo, ip
HDAC enzymes = assay: Effects against HDAC enzymes (BIOMOL kit, Hela nuclear extract); type: biochemical; settings: 37° C. 1 hour
Protocol: To measure effects against HDAC enzymes, a kit (BIOMOL International, LP) was used Each of test substances was dissolved in DMSO to a concentration of 10 mg/ml, and an assay buffer, an enzyme solution, a substrate and a staining reagent were prepared. […] Also, the staining reagent was a mixture of assay buffer (19/20), developer (1/20) and TSA (1/100). The assay buffer, the enzyme solution, the test substance and the substrate were added sequentially to a 96-well plate, stirred on a rocker for 3 minutes, and then incubated at 37° C. for 1 hour. After completion of the incubation, the staining reagent was added, and the mixture was stirred on a rocker for 1 minute and then incubated at 37° C. for 20 minutes (the staining reagent was mixed before addition).

[5] = BALB/c nude, mouse, in vivo, ip, 2 weeks
[6] = 60 mg/kg, b.i.wk(Mon, Thu), 3 wks, ip
[7] = 80 mg/kg, b.i.wk(Mon, Thu), 3 wks, ip
[8] = 100 mg/kg, b.i.wk(Mon, Thu), 3 wks, ip
[9] = Table 18, 80 mg/kg/day, qd x 5, 2 wks, ip
[10] = Table 19, 40 mg/kg/day, qd x 5, 2 wks, ip
[11] = Table 19, 60 mg/kg/day, qd x 5, 2 wks, ip

SMILES: Cc1cc2cc(-c3ccc(N(CCCCCCC(=O)NO)C(=O)N4CCN(C)CC4)cc3)ccc2[nH]1 [Compound 334, N-(7-(hydroxyamino)-7-oxoheptyl)-4-methyl-N-(4-(2-methyl-1H-indol-5-yl)phenyl)piperazine-1-carboxamide]
IC50 (HL60 cell line): 10 to 20 nM
IR (%) [3, 10]: 47%
IR (%) [3, 11]: 66%
MTD at 2 weeks (in vivo): 60 mg/kg

SMILES: CCN1CCN(C(=O)N(CCCCCCC(=O)NO)c2ccc(-c3ccc4cnn(C)c4c3)cc2)CC1 [Compound 336, 4-ethyl-N-(7-(hydroxyamino)-7-oxoheptyl)-N-(4-(1-methyl-1H-indazol-6-yl)phenyl)piperazine-1-carboxamide]
IC50 (HL60 cell line): 50 to 100 nM
IR (%) [3, 10]: 56%
IR (%) [3, 11]: 75%
IR (%) ([3]; Table 19, 80 mg/kg/day, qd x 5, 2 wks, ip): 78%
colon cancer (HCT 116) inhibitory effect compared to control drugs ([3]; ip, qd x 5, 2 wks, in words): excellent inhibitory effects on colon cancer
MTD at 2 weeks (in vivo): 80 mg/kg

SMILES: CN1CCN(C(=S)N(CCCCCCC(=O)NO)c2ccc(-c3ccc4[nH]ccc4c3)cc2)CC1 [Compound 358, 7-(N-(4-(1H-indol-5-yl)phenyl)-4-methylpiperazine-1-carbothioamido)-N-hydroxyheptanamide]
IC50 (HL60 cell line): 20 to 50 nM

SMILES: Cc1[nH]c2ccccc2c1CCNCc1ccc(/C=C/C(=O)NO)cc1 [LBH 589, Panobinostat, reference compound]
IR (%) ([1]; 10 mg/kg/day, qd x 5, 3 wks): 58%
IR (%) ([2]; 10 mg/kg/day, qd x 5, 3 wks): 48%
IC50 (HL60 cell line): 20 to 50 nM
IR (%) ([3]; Table 18, 5 mg/kg/day, qd x 5, 2 wks, ip): 40%
IR (%) ([3]; Table 18, 10 mg/kg/day, qd x 5, 2 wks, ip): 65%
IR (%) ([3]; Table 19, 5 mg/kg/day, qd x 5, 2 wks, ip): 40%
IR (%) ([3]; Table 19, 10 mg/kg/day, qd x 5, 2 wks, ip): 65%
IR (%) ([3]; Table 22, 50 mg/kg/day, qd x 5, 3 wks, p.o): 0%
MTD at 2 weeks (in vivo): 10 mg/kg

SMILES: Nc1ccccc1NC(=O)c1ccc(CNc2nccc(-c3cccnc3)n2)cc1 [MGCD 0103, reference compound]
IR (%) ([3]; Table 22, 120 mg/kg/day, qd x 5, 3 wks, p.o): 50%

SMILES: O=C(/C=C/c1cccc(S(=O)(=O)Nc2ccccc2)c1)NO [PXD 101, Belinostat, reference compound]
IC50 (HL60 cell line): 100 to 200 nM
IR (%) [3, 9]: 38%
MTD at 2 weeks [4]: 80 mg/kg
IC50 (HDAC enzymes): 100 to 200 nM

SMILES: O=C(CCCCCCC(=O)Nc1ccccc1)NO [SAHA, vorinostat, reference compound]
IR (%) ([3]; Table 18, 100 mg/kg/day, qd x 5, 2 wks, ip): 46%
IR (%) ([3]; Table 22, 200 mg/kg/day, qd x 5, 3 wks, p.o): 26%
maximum tolerated doses (MTDs) [5]: 100 mg/kg

Second part, led by results:

IC50 (HL60 cell line): 50 to 100 nM
P450 3A4 inhibition (P450 (CYP3A4)): did not inhibit
P450 3A4 inhibitory activity relative to LBH 589 (P450 (CYP3A4)): lower than that of LBH 589
SMILES: CN1CCN(C(=O)N(CCCCCCC(=O)NO)c2ccc(-c3ccc4cnn(C)c4c3)cc2)CC1 [Compound 312, N-(7-(hydroxyamino)-7-oxoheptyl)-4-methyl-N-(4-(1-methyl-1H-indazol-6-yl)phenyl)piperazine-1-carboxamide]
IR (%) [1, 6]: 50%
IR (%) [1, 7]: 56%
IR (%) [1, 8]: 71%
inhibitory effect against non-small cell lung cancer (A549) ([1]; administered twice a week, in words): excellent inhibitory effect
IR (%) [2, 6]: 39%
IR (%) [2, 7]: 39%
IR (%) [2, 8]: 59%
inhibitory effects against prostate cancer (PC-3) compared to LBH 589 ([2]; twice a week for 3 weeks, in words): excellent inhibitory effects
IR (%) ([3]; Table 18, 20 mg/kg/day, qd x 5, 2 wks, ip): 51%
IR (%) ([3]; Table 18, 40 mg/kg/day, qd x 5, 2 wks, ip): 58%
IR (%) ([3]; Table 18, 60 mg/kg/day, qd x 5, 2 wks, ip): 70%
IR (%) [3, 9]: 81%
IR (%) ([3]; Table 22, 150 mg/kg, b.i.wk(Mon, Thu), 3 wks, p.o): 52%
IR (%) ([3]; Table 22, 180 mg/kg, b.i.wk(Mon, Thu), 3 wks, p.o): 55%
IR (%) ([3]; Table 22, 210 mg/kg, b.i.wk(Mon, Thu), 3 wks, p.o): 69%
colon cancer (HCT 116) inhibitory effect compared to control drugs ([3]; ip, qd x 5, 2 wks, in words): excellent colon cancer inhibitory effects
inhibitory effect against colon cancer (HCT116) upon oral administration compared to LBH 589, SAHA and MGCD0103 ([3]; oral, twice a week for 3 weeks, in words): excellent inhibitory effect

IC50 (HL60 cell line): 20 to 50 nM
SMILES: CN1CCN(C(=O)N(CCCCCCC(=O)NO)c2ccc(-c3ccc4c(cnn4C)c3)cc2)CC1 [Compound 350, N-(7-(hydroxyamino)-7-oxoheptyl)-4-methyl-N-(4-(1-methyl-1H-indazol-5-yl)phenyl)piperazine-1-carboxamide]

IC50 (HL60 cell line): 20 to 50 nM
SMILES: CCN1CCN(C(=O)N(CCCCCCC(=O)NO)c2ccc(-c3ccc4c(cnn4C)c3)cc2)CC1 [Compound 351, 4-ethyl-N-(7-(hydroxyamino)-7-oxoheptyl)-N-(4-(1-methyl-1H-indazol-5-yl)phenyl)piperazine-1-carboxamide]

IC50 (HL60 cell line): 50 to 100 nM
SMILES: CN1CCN(C(=S)N(CCCCCCC(=O)NO)c2ccc(-c3ccc4cc[nH]c4c3)cc2)CC1 [Compound 357, 7-(N-(4-(1H-indol-6-yl)phenyl)-4-methylpiperazine-1-carbothioamido)-N-hydroxyheptanamide]

IC50 (HL60 cell line): 20 to 50 nM
SMILES: CN1CCN(C(=S)N(CCCCCCC(=O)NO)c2ccc(-c3ccc4c(cnn4C)c3)cc2)CC1 [Compound 359, N-hydroxy-7-(4-methyl-N-(4-(1-methyl-1H-indazol-5-yl)phenyl)piperazine-1-thiocarboamido)heptanamide]

From patent publication US8466161B2, “Hydroxamate derivative, a production method for the same, and a pharmaceutical composition comprising the same” (Chong Kun Dang Pharmaceutical Corp., priority 2009, dated 2013)
